The results in this text go back to patent publication US7872025B2 (Bridge Pharma, Inc., priority 1999, dated 2011).

In one data set the test system is inflammation. In words: Anti-inflammatory effects (bronchial eosinophil accumulation; mouse ear croton oil inflammation). The following applies: in vivo. How it is done:
Inhibition of eosinophil accumulation in lung is determined in sensitized guinea pigs (400 to 600 grams) following intraperitoneal injection of an allergen such as for example PAF (platelet aggregating factor) or bovine serum albumin. At a predetermined time thereafter, the animals are killed with a barbiturate. The trachea is exposed and cannulated. 6×10 ml aliquots of buffered modified Tyrode's solution (composition: NaHCO3 11.9, NaCl 136.9, KCl 2.7, Na2HPO4 0.4, glucose 5.6, EDTA 19.8, gelatin 0.1% w/v; pH 7.4) are introduced successively and aspirated by gentle compression of the lungs. Total fluid recovery normally exceeds 80%. Cell suspensions are concentrated by low speed centrifugation (200 G for 10 min) and the resulting cell pellet is resuspended in 1 ml modified Tyrode's solution. Total cell counts are made by diluting 10 μl of cell suspension in 90 μl of Turk's fluid. Differential cell counts are made from smears fixed in methanol (100%) and stained in Leishman stain. A total of at least 500 cells per smear are counted at 1000 fold magnification, in order to differentiate cell types. Drugs are administered as sustained subcutaneous infusions from an implanted Alza minipump (Alzet 2001 or similar) or by repeated oral or repeated parenteral injections.
Dermal antiinflammatory effects are tested using the mouse ear croton oil inflammation method. This test method is based on Tarrida, J. et al., Meth. Find. Exp. Clin. Pharmacol. (1996) 18(4):233-234 and Blazzo, et al., Prostaglandins (1995) 50:161-168. In short, male mice (25-30 g) are treated with 5 ml/kg of a 2 mg/ml solution of each test compound in physiological saline by intraperitoneal injection. Thirty minutes after injection, croton oil (0, 20 μl of 1.0% croton oil in acetone) or acetone (control) is topically applied to both ears of each mouse. Animals are restrained during croton oil or acetone application and then released into a cage. Before and at predetermined time intervals following croton oil or acetone application, groups of animals are anesthetized with halothane and euthanized by cervical dislocation. […]

The next data set has as its system mice. In words: Sedative side effects (physostigmine-induced lethality test). The following applies: mouse, in vivo. How it is done: The physostigmine-induced lethality test is being used in the present studies. […] In the present study, test compounds are administered orally 60 minutes prior to physostigmine. The numbers of survivors are counted 30 minutes after physostigmine administration.

The next data set deals with T1, histamine H1-receptor (Cavia porcellus, UniProt P31389).
T1 construct: from tissue; host or cells: guinea pig cerebellum membranes
In words: Binding to histaminergic receptors (3H-pyrilamine binding). Also noted: species or system guinea pig. How it is done: Briefly, membranes from guinea pig cerebellum are incubated with ^3H-pyrilamine and varying concentrations of the test compound(s). The specific binding of the radioactive ligand to the receptor is defined as the difference between total binding and nonspecific binding, determined in the presence of an excess of unlabelled ligand. The results are expressed as percentage of specific binding in the presence of compounds. […] These parameters are obtained by Hill equation curve fitting using Sigmaplot™ software.

The test system of data set [1] is bronchial or other smooth muscle tissues. In words: Antihistaminic effects in vitro (histamine contractions of smooth muscle strips). Also noted: species or system guinea pigs. The conditions noted are these: listed as racemic norketotifen. As to the method: Strips of bronchial or other smooth muscle tissues are removed from the body of male guinea pigs weighing 400-600 g. The tissues are suspended in an oxygenated buffer of the composition (mM): NaCl, 133; KCl, 4.7; CaCl2, 2.5; MgSO4, 0.6; NaH2PO4, 1.3; NaHCO3, 16.3; and glucose, 7.7, or in a solution of a similar composition. The solution is maintained at 37.5 C. Contractions are recorded with isometric transducers (Model FT-10) on a Grass polygraph.
In order to assess the viability of each tissue and to serve as a frame of reference, contractions of each strip of tissue are recorded initially in response to exposure to an oxygenated buffer in which the NaCl is replaced by KCl to yield a concentration of 137.7 mM KCl. This is followed by return to the standard oxygenated buffer, and then by exposures to progressively increasing concentrations of histamine, with separate exposures to each concentration only until the peak response has been recorded. Then, leaving one tissue strip untreated, the remaining strips each are exposed for a predetermined time interval to one concentration of an antagonist. Finally, the responses to increasing concentrations of histamine followed by exposure to 137.7 mM KCl are recorded a second time.

The target of the next data set is histamine H-2 (Homo sapiens, UniProt P25021). As to the kind of experiment: Histamine H-2 antagonism (no method given).

Entries after “also recorded” stand apart in the source; their conditions may differ.

T1 sequence (P31389 whole entry): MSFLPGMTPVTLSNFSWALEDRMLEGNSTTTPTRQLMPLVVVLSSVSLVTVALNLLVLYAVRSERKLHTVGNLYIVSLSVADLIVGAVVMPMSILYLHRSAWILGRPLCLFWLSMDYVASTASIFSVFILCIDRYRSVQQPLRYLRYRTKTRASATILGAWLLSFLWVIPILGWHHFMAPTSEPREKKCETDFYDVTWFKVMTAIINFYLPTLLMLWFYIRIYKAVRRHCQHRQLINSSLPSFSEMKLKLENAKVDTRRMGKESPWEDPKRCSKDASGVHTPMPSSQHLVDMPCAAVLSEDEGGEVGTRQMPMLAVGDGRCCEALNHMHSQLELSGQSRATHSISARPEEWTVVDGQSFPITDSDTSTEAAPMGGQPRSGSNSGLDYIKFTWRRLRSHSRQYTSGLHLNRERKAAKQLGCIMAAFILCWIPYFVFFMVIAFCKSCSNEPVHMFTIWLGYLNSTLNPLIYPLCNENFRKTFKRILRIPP
Sequence of histamine H-2 (P25021 whole entry): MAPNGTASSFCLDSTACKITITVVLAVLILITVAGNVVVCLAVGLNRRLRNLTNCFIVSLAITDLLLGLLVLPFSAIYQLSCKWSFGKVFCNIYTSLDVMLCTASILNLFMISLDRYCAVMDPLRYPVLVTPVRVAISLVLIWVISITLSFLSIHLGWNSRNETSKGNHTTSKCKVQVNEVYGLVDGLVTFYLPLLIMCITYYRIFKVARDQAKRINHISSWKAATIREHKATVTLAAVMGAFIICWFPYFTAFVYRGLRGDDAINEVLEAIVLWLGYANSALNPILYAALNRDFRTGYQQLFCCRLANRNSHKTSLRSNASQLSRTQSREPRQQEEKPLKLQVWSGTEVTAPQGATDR

With `OC1Cc2ccccc2C(=C2CCNCC2)c2ccsc21` (stereo not drawn) [10-hydroxy-norketotifen], the anti-inflammatory effect entry in the data set on inflammation was “inhibit inflammation”. Besides, the sedative side effects result with mice is on record as “significantly less sedation than ketotifen”. On histamine H1-receptor, the “histamine H-1 receptor antagonism / blockade” value is listed as “block histamine H-1 receptors”.
Consider `CN1CCC(=C2c3ccccc3CC(=O)c3sccc32)CC1` [S-isomer of ketotifen], for which, in the data set on mice, the sedative side effects entry is on record as “not causing the severe sedative side effects of ketotifen”.
In the case of `O=C1Cc2ccccc2C(=C2CCNCC2)c2ccsc21` (racemic) [nor-ketotifen], in data set [1], the antihistaminic effects entry is “qualitatively similar to the antihistaminic effects of racemic ketotifen; also recorded: potent anti-inflammatory and anti-histaminic properties”. Besides, the anti-inflammatory effect result in the data set with inflammation is “potent anti-inflammatory and anti-histaminic properties”. Further, the sedative side effects entry with mice was “little or no sedative side effect”. Further, the “histamine H-1 receptor antagonism / blockade” value on histamine H1-receptor is recorded as “histamine H-1 antagonists”. The “histamine H-2 antagonism” value on histamine H-2 was “varying degree of histamine H-2 antagonism”.
With `CN1CCC(=C2c3ccccc3CC(=O)c3sccc32)CC1` [R(+)-ketotifen], the sedative side effects result in the data set on mice is “almost all the sedative side effects were found to reside in R(+)-ketotifen”.
With `CN1CCC(=C2c3ccccc3CC(O)c3sccc32)CC1` (stereo not drawn) [10-hydroxy-ketotifen], the anti-inflammatory effect result in the data set on inflammation is recorded as “inhibit inflammation”. In the data set with mice, the sedative side effects entry is given as “significantly less sedation than ketotifen”. For the same molecule, the “histamine H-1 receptor antagonism / blockade” value at histamine H1-receptor is “block histamine H-1 receptors”.
In the case of `CN1CCC(=C2c3ccccc3CC(=O)c3sccc32)CC1` (racemic) [ketotifen, 4-(1-methyl-4-piperidyline)-4H-benzo(4,5) cyclohepta-(1,2-b) thiophene-10-one, reference compound], the sedative side effects result with mice is “severe and dose-limiting sedative activity”. Also, the “histamine H-2 antagonism” value on histamine H-2 is recorded as “varying degree of histamine H-2 antagonism”.
